Where two headings read alike, the source gives them in different places.
Tests used:
[1] = Rodent pharmacokinetics: oral bioavailability and clearance in male mice; parameters: species or system mouse; conditions: in vivo
Description: Formulation: 10% DMSO, 90% Saline
Dosing: 10 mg/kg P.O. and 5 mg/kg I.V.
Animals in Group 1 were administered intravenously with Example B solution formulation in 20% Propylene Glycol, 50% of PEG 400 and 30% of (20% HPβCD in water) via tail vein at a dose of 3 mg/kg.
Animals in Group 2 were administered with oral solution formulation of Example B in 20% Propylene Glycol, 50% of PEG 400 and 30% of (20% HPβCD in water) at a dose of 10 mg/kg;
Dosing: 10 mg/kg P.O. and 3 mg/kg I.V.
Animals in Group 1 were administered intravenously with Example G solution formulation in 5% NMP, 5% solutol HS-15 in 90% HPβCD solution (20% HPβCD in RO water) at 3 mg/kg dose.
Animals in Group 2 were administered orally with 10 mg/kg solution formulation of Example G in 5% NMP, 5% solutol HS-15 in 90% HPβCD solution (20% HPβCD in RO water)

Human HDAC1 = target: T1, Human HDAC1 (Homo sapiens, UniProt Q13547); assay: HDAC biochemical assay with acetylated AMC-labeled peptide substrate; conditions: read-out: IC50 HDAC 1
T1 construct: full length with C-terminal His-tag and C-terminal FLAG-tag; His-tag (C); FLAG-tag (C); made in house; host or cells: baculovirus expression system
T1 sequence (Q13547 whole entry): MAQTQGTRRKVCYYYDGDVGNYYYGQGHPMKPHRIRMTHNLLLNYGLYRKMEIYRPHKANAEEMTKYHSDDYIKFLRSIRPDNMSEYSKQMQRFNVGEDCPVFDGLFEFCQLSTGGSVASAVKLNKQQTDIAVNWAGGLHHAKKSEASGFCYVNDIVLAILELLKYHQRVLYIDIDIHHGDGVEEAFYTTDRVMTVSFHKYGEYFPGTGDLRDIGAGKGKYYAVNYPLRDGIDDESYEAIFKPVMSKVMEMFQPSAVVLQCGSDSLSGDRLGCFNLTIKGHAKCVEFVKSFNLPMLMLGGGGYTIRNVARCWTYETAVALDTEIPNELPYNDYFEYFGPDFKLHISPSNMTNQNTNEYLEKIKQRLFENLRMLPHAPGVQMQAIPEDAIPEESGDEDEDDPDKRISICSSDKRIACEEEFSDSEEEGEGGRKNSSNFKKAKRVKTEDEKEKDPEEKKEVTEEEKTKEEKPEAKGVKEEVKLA
Description: (§1) Activity against all zinc-dependent HDACs 1 to 11 was assessed by using an acetylated AMC-labeled peptide substrate. The substrate RHKKAc was used for all class I and IIb HDACs; for HDAC8, the substrate used was RHKAcKAc. […] All assays were based on the AMC-labeled substrate and developer combination.
(§2) The protocol involved a two-step reaction: first, the substrate with the acetylated lysine side chain is incubated with a sample containing HDAC activity, to produce the deacetylated products, which are then digested in the second step by the addition of developer to produce the fluorescent signal proportional to the amount of deacetylated substrates.
Human HDAC1 (GenBank Accession No. NM_004964), full length with C-terminal His-tag and C-terminal FLAG-tag, MW=56 kDa, expressed in baculovirus expression system.
(§3) Before use, 1 mg/mL BSA and DMSO are added.
(§4) Incubate for 2 hours at 30° C.
(§5) Fluorescence background signal is then subtracted from compound data signal.
(§6) Stage 1: Deacetylation of substrate by incubation of HDAC enzymes with compounds
(§7) Stage 2: Development by addition of Developer to digest the deacetylated substrate, and generate the fluorescent color; Detection: 360/460 Ex/Em

Recombinant human HDAC6 = target: T2, Recombinant human HDAC6 (Homo sapiens, UniProt Q9UBN7); assay: as above; conditions: read-out: IC50 HDAC 6
T2 construct: GST (N); made in house; host or cells: Sf9 insect cells (baculovirus)
T2 sequence (Q9UBN7 1-1215): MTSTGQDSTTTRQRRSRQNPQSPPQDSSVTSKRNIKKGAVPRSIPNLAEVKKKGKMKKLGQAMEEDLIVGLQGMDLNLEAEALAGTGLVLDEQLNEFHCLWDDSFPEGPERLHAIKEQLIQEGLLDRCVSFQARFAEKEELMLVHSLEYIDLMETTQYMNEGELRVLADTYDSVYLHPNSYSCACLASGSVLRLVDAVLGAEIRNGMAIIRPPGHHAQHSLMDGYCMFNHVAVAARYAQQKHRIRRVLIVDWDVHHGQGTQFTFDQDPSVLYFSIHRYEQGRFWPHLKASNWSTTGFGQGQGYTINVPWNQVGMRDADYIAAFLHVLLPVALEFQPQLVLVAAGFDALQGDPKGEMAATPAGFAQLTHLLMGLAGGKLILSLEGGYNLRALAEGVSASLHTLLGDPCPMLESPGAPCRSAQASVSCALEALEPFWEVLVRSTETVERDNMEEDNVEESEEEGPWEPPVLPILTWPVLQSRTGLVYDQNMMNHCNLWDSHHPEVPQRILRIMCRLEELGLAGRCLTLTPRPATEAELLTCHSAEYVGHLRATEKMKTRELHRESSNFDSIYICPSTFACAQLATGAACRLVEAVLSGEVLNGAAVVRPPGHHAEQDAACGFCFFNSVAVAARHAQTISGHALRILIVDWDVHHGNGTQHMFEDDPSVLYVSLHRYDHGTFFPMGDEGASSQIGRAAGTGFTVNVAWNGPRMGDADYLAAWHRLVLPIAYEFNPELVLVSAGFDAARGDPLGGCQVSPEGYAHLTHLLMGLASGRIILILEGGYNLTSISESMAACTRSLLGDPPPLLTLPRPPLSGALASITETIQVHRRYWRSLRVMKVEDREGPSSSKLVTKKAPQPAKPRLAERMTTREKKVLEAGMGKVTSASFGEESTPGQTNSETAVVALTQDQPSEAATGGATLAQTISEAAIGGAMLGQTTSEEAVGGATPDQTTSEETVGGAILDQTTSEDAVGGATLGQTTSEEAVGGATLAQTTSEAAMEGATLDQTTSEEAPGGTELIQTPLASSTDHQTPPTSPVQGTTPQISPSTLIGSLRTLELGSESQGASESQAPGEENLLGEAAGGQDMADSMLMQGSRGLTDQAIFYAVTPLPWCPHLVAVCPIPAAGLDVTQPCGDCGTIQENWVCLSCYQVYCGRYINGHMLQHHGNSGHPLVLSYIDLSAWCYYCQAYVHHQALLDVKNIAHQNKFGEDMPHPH
Description: as §1, §2
Human HDAC5 (GenBank Accession No. NM_005474), full length with N-terminal GST tag, MW=150 kDa, expressed in baculovirus expression system. Recombinant human HDAC6 (GenBank Accession No. BC069243), full length, MW=180 kDa, was expressed by baculovirus in Sf9 insect cells using an N-terminal GST tag.
as §3, §4, §5, §6, §7

[2] = system: LoVo cells (colorectal adenocarcinoma); assay: SRB proliferation assay (potentiation study); assay type: cell-based, human; conditions: in the presence of 100 nM Compound A, GI50 shift, z-score and/or HSA analysis
Description: (§8) 48 hours later, cells were treated with 10μL media containing compound at 20× final concentration (resulting in a final DMSO concentration of 0.1%). […] In addition, control plates with cells not exposed to compound were analyzed after 48 hours (time zero, Tz). […] Briefly—after compound treatment, media was aspirated and cells were fixed by addition of 10% TCA.
(§9) Average background optical density (derived from plates and wells containing medium without cells) was subtracted from the optical density values from all controls and treated cells.

[3] = system: panel of 94 cancer cell lines; assay: Potentiation study #2015030003, SRB proliferation assay; assay type: cell-based; conditions: 72 h
Description: as §8, §9

[4] = system: MINO cells (mantle cell lymphoma); assay: SRB proliferation assay (potentiation and concentration matrix studies); assay type: cell-based, human; conditions: in the presence of 100 nM Compound A, GI50 shift, z-score and/or HSA analysis
Description: (§10) Cell lines marked with ‡ were also tested in study #2015030004.
as §8, §9

[5] = system: PC-3 cells (prostate adenocarcinoma); assay: as above; assay type: cell-based, human; conditions: PC-3, in the presence of 100 nM Compound A; GI50 shift, z-score and/or HSA analysis
Description: as §10, §8, §9

Work on c1cc(-c2nc(N3CCOCC3)c3oc4ncc(CN5C[C@@H]6C[C@H]5CO6)cc4c3n2)c2cc[nH]c2c1 [A] yielded an F ([1]; male, CD1, mouse) of 73.77%, a clearance ([1]; male, CD1, mouse, iv, 5 mg/kg) of 21.12 mL/min/kg and a clearance ([1]; male, mouse, iv) of 21 mL/min/kg. For the same compound, the “Oral Bioavailability (F)” value ([1]; male, mouse, po, 10 mg/kg) was 74.
c1cc(-c2nc(N3CCOCC3)c3oc4ncc(CN5CCC56COC6)cc4c3n2)c2cc[nH]c2c1 [G] showed an F ([1]; male, Balb/c, mouse) of 30% and a clearance ([1]; male, mouse, summary table, mice, IV, read-out: Clearance) of 26 mL/min/kg.
COc1cccnc1N(Cc1ccc(C(=O)NO)cc1)c1ccc(N2CCOCC2)cn1 [Example Z, N-Hydroxy-4-(((3-methoxypyridin-2-yl)(5-morpholinopyridin-2-yl)amino)methyl)benzamide] showed an IC50 (Human HDAC1) greater than 10 µM and an IC50 (Recombinant human HDAC6) of no more than 0.5 µM.
In the case of c1cc(-c2nc(N3CCOCC3)c3oc4ncc(CN5CCCCC5)cc4c3n2)c2cc[nH]c2c1 [Example I in WO2011/021038, reference compound], the “Oral Bioavailability (F)” value ([1]; male, mouse, po, 10 mg/kg) is reported as 28.
With O=C(NO)c1ccc(CN(c2ccccn2)c2nccc3sccc23)cc1 [Example BB, N-Hydroxy-4-((pyridin-2-yl(thieno[3,2-c]pyridin-4-yl)amino)methyl)benzamide] the IC50 (Human HDAC1) was 1 to 10 µM and the IC50 (Recombinant human HDAC6) was no more than 0.5 µM.
Compound Cn1c(N(Cc2ccc(C(=O)NO)cc2)c2ccc(F)cn2)nc2ccccc21 [Example N, 4-(((5-Fluoropyridin-2-yl)(1-methyl-1H-benzo[d]imidazol-2-yl)amino)methyl)-N-hydroxybenzamide] has an IC50 (Human HDAC1) greater than 10 µM and an IC50 (Recombinant human HDAC6) of no more than 0.5 µM.
Compound c1cc(-c2nc(N3CCOCC3)c3oc4ncc(CN5CCC6(CC5)COC6)cc4c3n2)c2cc[nH]c2c1 [B] has an F ([1]; mouse) of 74%, an AUC(0-t) ([1]; mouse, iv, 3 mg/kg) of 1510 ng·h/mL and an AUCinf ([1]; mouse, iv, 3 mg/kg) of 1512.20 ng·h/mL. The Cmax ([1]; mouse, iv, 3 mg/kg) was 621.42 ng/mL, the Vss ([1]; mouse, iv, 3 mg/kg) was 5.51 L/kg and the clearance ([1]; mouse, iv, 3 mg/kg) was 33.06 mL/min/kg. For the same compound, the t1/2 ([1]; mouse, iv, 3 mg/kg) was 1.23 h, the AUC(0-t) ([1]; mouse, po, 10 mg/kg) was 3730 ng·h/mL and the AUCinf ([1]; mouse, po, 10 mg/kg) was 4103.86 ng·h/mL.
Compound O=C(NO)c1ccc(CN(c2ccncn2)c2cnccn2)nc1 [Example FF, N-Hydroxy-6-{[(pyrazin-2-yl)(pyrimidin-4-yl)amino]methyl}pyridine-3-carboxamide] has an IC50 (Human HDAC1) greater than 10 µM and an IC50 (Recombinant human HDAC6) of no more than 0.5 µM.
With Cc1cccc(N(Cc2ccc(C(=O)NO)cc2)c2ccc(N3CCOCC3)cn2)n1 [Example CC, N-Hydroxy-4-(((6-methylpyridin-2-yl)(5-morpholinopyridin-2-yl)amino)methyl)benzamide] the IC50 (Human HDAC1) was greater than 10 µM and the IC50 (Recombinant human HDAC6) was 0.5 to 1 µM.
In the case of O=C(NO)c1ccc(CN(c2cnccn2)c2cnccn2)cc1 [Example GG, 4-{[Bis(pyrazin-2-yl)amino]methyl}-N-hydroxybenzamide], the “potentiation of the pharmacological activity of Compound GG by Compound A” value [2] is reported as “potentiate”, the GI50 ([3]; Compound GG alone, read-out: GI50 values for the individual cell lines (range)) is reported as 4.7 to 33 µM and the GI50 ([3]; Compound GG alone, read-out: mean (±s.e.m) GI50 value across the whole panel) is reported as 17.3 µM. The GI50 ([3]; Compound GG in the presence of 100 nM Compound A, read-out: GI50 values for the individual cell lines (range)) was 1.7 to 35 µM, the GI50 ([3]; Compound GG in the presence of 100 nM Compound A, read-out: mean (±s.e.m) GI50 value across the whole panel) was 14.1 µM and the “potentiation of the pharmacological activity of Compound GG by Compound A” value [4] was “potentiate”. The “potentiation of the pharmacological activity of Compound GG by Compound A” value [5] was “potentiate”.
For O=C(NO)c1ccc(CN(c2cnccn2)c2cc(-c3ccc(F)cc3)ccn2)cc1 [Example U, 4-(((4-(4-Fluorophenyl)pyridin-2-yl)(pyrazin-2-yl)amino)methyl)-N-hydroxybenzamide], the IC50 (Human HDAC1) was 1 to 10 µM and the IC50 (Recombinant human HDAC6) was no more than 0.5 µM.
